Entries after “also recorded” stand apart in the source; their conditions may differ.
What was measured:
AML-RAS cells [1] = test: AlamarBlue cell viability assay on AML-RAS cells; format: cell-based, human; details: 3 days after treatment; 20 mM LiCl, 5 uM Kenpaullone or 2 uM BIO
Procedure: (§1) Cell Viability Assay. To determine the effects of various drug treatments on oncogenic RAS mutant cells, an AlamarBlue assay (Invitrogen) was performed. 2500 cells were seeded in triplicate in 96-well plates one day prior to drug treatments. For TRI-102 and AML-RAS cells, fluorescence was measured at 72 hrs after drug addition. For other oncogenic RAS cells, fluorescence was measured 120 hrs after drug addition.
as §1, with “cells,” for “cells, an”

AML-RAS cells [2] = test: Soft agar assay on AML-RAS cells; format: cell-based, human; details: 20 mM LiCl; colonies counted after 3-4 weeks
Procedure: (§2) Softagar Assay. Soft agar assays were performed in triplicate in 6-well plates. For each well, a bottom layer containing 1% agar in growth medium was added. Then 10,000 cells were plated in 0.5% agar in growth medium. Growth medium was added to each well and changed every 3 days. The colonies were counted after 3-4 weeks.

AML-RAS xenografts = test: AML-RAS cell xenograft model; format: in vivo, nude mice; details: LiCl 340 mg/kg intraperitoneal every two days, 28 days
Procedure: (§3) Xenograft. 10^6 AML-RAS cells were resuspended in PBS and inoculated subcutaneously into both flanks of 6-week old female nude mice (Charles River Laboratory). Seven days after transplantation, animals were treated with intraperitoneal injections of LiCl (340 mg/kg body weight), or an equal volume of vehicle (PBS) every two days. Tumor volume (mm3) and body weight (g) were measured every 2 days. The tumor volume was estimated by using caliper measurements based on formula W^2×L/2 (L is the length of the tumor, W is the width of the tumor). All experiments were approved by and conducted in compliance with the Yale Animal Resources Center and the Institutional Animal Care and Use Committee under protocol number 2008-10230.
as §3, with “estimated” for “estimated by”, “All experiments were approved by and conducted in compliance with the Yale Animal Resources Center and the Institutional Animal Care and Use Committee under protocol number 2008-10230.” left out

[3] = system: patient-derived cancer cells with oncogenic RAS mutations (lung, colon, pancreatic, melanocytic); test: AlamarBlue cell viability assay on panel of 17 patient-derived oncogenic RAS cancer cells; format: cell-based, human; details: panel of 17 lines; viable cells vs vehicle after 5 days
Procedure: as §1
as §1, with “cells,” for “cells, an”

A549 lung cancer cells = test: AlamarBlue cell viability assay on A549 cells; format: cell-based, human; details: viable cells vs vehicle after 5 days; SMARCA4 frame shift deletion
Procedure: as §1
as §1, with “cells,” for “cells, an”

H1792 cells = test: Soft agar assay on H1792 cells; format: cell-based, human; details: 20 mM LiCl
Procedure: as §2

A549 cells = test: Soft agar assay on A549 cells; format: cell-based, human; details: 20 mM LiCl
Procedure: as §2

[Cl-].[Li+] [LiCl, lithium chloride]
growth of the AML-RAS cells (viable cells) (AML-RAS cells [1]): specifically impaired the growth
anchorage-independent growth of the AML-RAS cells in soft agar (AML-RAS cells [2]): prevented; also recorded: dramatically suppressed
tumor growth in AML-RAS xenografts (AML-RAS xenografts; nude mice): dramatically suppressed
health of the recipient mice (body weight) (AML-RAS xenografts; tumor-suppressing dose): not affected
growth of patient-derived cancer cells harboring oncogenic KRAS, NRAS or HRAS mutations [3]: suppresses the growth
growth of A549 lung cancer cells (A549 lung cancer cells): not significantly suppressed
anchorage-independent growth of the H1792 cells in soft agar (H1792 cells): completely inhibited; also recorded: dramatically inhibited
anchorage-independent growth of the A549 cells in soft agar (A549 cells): failed to suppress

O=C1Cc2c([nH]c3ccc(Br)cc23)-c2ccccc2N1 [Kenpaullone]
growth of the AML-RAS cells (viable cells) (AML-RAS cells [1]): specifically inhibited the growth
growth of patient-derived cancer cells harboring oncogenic KRAS, NRAS or HRAS mutations [3]: suppresses the growth
growth of A549 lung cancer cells (A549 lung cancer cells): not significantly suppressed

O=C1Nc2cc(Br)ccc2/C1=C1/Nc2ccccc2/C1=N\O [BIO, 6-bromoindirubin-30-oxime]
growth of the AML-RAS cells (viable cells) (AML-RAS cells [1]): specifically inhibited the growth
growth of patient-derived cancer cells harboring oncogenic KRAS, NRAS or HRAS mutations [3]: suppresses the growth
growth of A549 lung cancer cells (A549 lung cancer cells): not significantly suppressed

From patent publication US10407734B2, “Compositions and methods of using transposons” (Yale University, priority 2013, dated 2019)
